PubChem BioAssay (NCI)
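Here, GI50 denotes the concentration required for 50% inhibition of growth. TGI marks complete inhibition of growth.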

Experiments:
Assay in all cases: growth of human tumour cells (NCI), 384-well format; in the data active = GI50 below about 0.43 µM; inactive = the rest
MOLT-4 leukemia = tested on: MOLT-4 leukemia
T-47D breast = tested on: T-47D breast
SW-620 colon = tested on: SW-620 colon
BT-549 breast = tested on: BT-549 breast
MDA-MB-468 breast = tested on: MDA-MB-468 breast
KM12 colon = tested on: KM12 colon
NCI-H460 NSCLC = tested on: NCI-H460 NSCLC
SF-268 CNS = tested on: SF-268 CNS
MDA-MB-435 melanoma = tested on: MDA-MB-435 melanoma
HCT-15 colon = tested on: HCT-15 colon
RXF 393 renal = tested on: RXF 393 renal
SF-539 CNS = tested on: SF-539 CNS
M14 melanoma = tested on: M14 melanoma
HT29 colon = tested on: HT29 colon
K-562 leukemia = tested on: K-562 leukemia
CAKI-1 renal = tested on: CAKI-1 renal
LOX IMVI melanoma = tested on: LOX IMVI melanoma
HL-60(TB) leukemia = tested on: HL-60(TB) leukemia
NCI-H23 lung = tested on: NCI-H23 lung
A549 NSCLC = tested on: A549 NSCLC
CCRF-CEM leukemia = tested on: CCRF-CEM leukemia
NCI/ADR-RES ovarian = tested on: NCI/ADR-RES ovarian
NCI-H322M lung = tested on: NCI-H322M lung
SK-MEL-5 melanoma = tested on: SK-MEL-5 melanoma
MCF7 breast = tested on: MCF7 breast
HCT-116 colon = tested on: HCT-116 colon
PC-3 prostate = tested on: PC-3 prostate
NCI-H522 lung = tested on: NCI-H522 lung
A498 renal = tested on: A498 renal
UO-31 renal = tested on: UO-31 renal
NCI-H226 lung = tested on: NCI-H226 lung
COLO 205 colon = tested on: COLO 205 colon
SF-295 CNS = tested on: SF-295 CNS
786-0 renal = tested on: 786-0 renal
DU-145 prostate = tested on: DU-145 prostate
ACHN renal = tested on: ACHN renal
IGROV1 ovarian = tested on: IGROV1 ovarian
HOP-62 NSCLC = tested on: HOP-62 NSCLC
HCC-2998 colon = tested on: HCC-2998 colon
TK-10 renal = tested on: TK-10 renal
SK-MEL-28 melanoma = tested on: SK-MEL-28 melanoma
OVCAR-3 ovarian = tested on: OVCAR-3 ovarian
OVCAR-8 ovarian = tested on: OVCAR-8 ovarian
SK-OV-3 ovarian = tested on: SK-OV-3 ovarian
U251 glioblastoma = tested on: U251 glioblastoma
SK-MEL-2 melanoma = tested on: SK-MEL-2 melanoma
UACC-257 melanoma = tested on: UACC-257 melanoma
SNB-19 CNS = tested on: SNB-19 CNS
RPMI-8226 leukemia = tested on: RPMI-8226 leukemia
SN12C renal = tested on: SN12C renal
UACC-62 melanoma = tested on: UACC-62 melanoma
MDA-MB-231 breast = tested on: MDA-MB-231 breast
MALME-3M melanoma = tested on: MALME-3M melanoma
SR leukemia = tested on: SR leukemia
OVCAR-5 ovarian = tested on: OVCAR-5 ovarian
HOP-92 NSCLC = tested on: HOP-92 NSCLC
OVCAR-4 ovarian = tested on: OVCAR-4 ovarian

Nc1ncn([C@H]2C[C@H](OP(=O)(O)OC[C@H]3O[C@@H](n4cnc5c(=O)[nH]c(N)nc54)C[C@@H]3O)[C@@H](CO)O2)c(=O)n1
26.4 µM: TGI (SN12C renal)
> 100 µM: TGI (SW-620 colon) | TGI (KM12 colon) | TGI (NCI-H460 NSCLC) | TGI (MDA-MB-435 melanoma) | TGI (HCT-15 colon) | TGI (SF-539 CNS) | TGI (M14 melanoma) | TGI (HT29 colon) | TGI (K-562 leukemia) | TGI (CAKI-1 renal) | TGI (NCI-H23 lung) | TGI (A549 NSCLC) | TGI (NCI/ADR-RES ovarian) | TGI (NCI-H322M lung) | TGI (MCF7 breast) | TGI (HCT-116 colon) | TGI (PC-3 prostate) | TGI (A498 renal) | TGI (UO-31 renal) | TGI (NCI-H226 lung) | TGI (COLO 205 colon) | TGI (SF-295 CNS) | TGI (DU-145 prostate) | TGI (IGROV1 ovarian) | TGI (HCC-2998 colon) | TGI (TK-10 renal) | TGI (SK-MEL-28 melanoma) | TGI (OVCAR-3 ovarian) | TGI (OVCAR-8 ovarian) | TGI (SK-OV-3 ovarian) | TGI (U251 glioblastoma) | TGI (SK-MEL-2 melanoma) | TGI (UACC-257 melanoma) | TGI (SNB-19 CNS) | TGI (UACC-62 melanoma) | TGI (MDA-MB-231 breast) | TGI (MALME-3M melanoma) | TGI (OVCAR-5 ovarian) | TGI (HOP-92 NSCLC) | TGI (OVCAR-4 ovarian)
25.5 µM: TGI (SR leukemia)
40.6 µM: TGI (BT-549 breast)
56.6 µM: TGI (SF-268 CNS)
1880 nM: TGI (CCRF-CEM leukemia)
inactive: GI50 (T-47D breast) 13 µM | GI50 (SW-620 colon) 18.5 µM | GI50 (BT-549 breast) 6.95 µM | GI50 (KM12 colon) > 100 µM | GI50 (NCI-H460 NSCLC) 763 nM | GI50 (SF-268 CNS) 12.4 µM | GI50 (MDA-MB-435 melanoma) 43.6 µM | GI50 (HCT-15 colon) > 100 µM | GI50 (RXF 393 renal) 1050 nM | GI50 (SF-539 CNS) 20.8 µM | GI50 (M14 melanoma) 922 nM | GI50 (HT29 colon) 46.5 µM | GI50 (K-562 leukemia) 1480 nM | GI50 (CAKI-1 renal) 7.79 µM | GI50 (LOX IMVI melanoma) 13.5 µM | GI50 (HL-60(TB) leukemia) 1160 nM | GI50 (NCI-H23 lung) > 100 µM | GI50 (A549 NSCLC) 10.8 µM | GI50 (NCI/ADR-RES ovarian) > 100 µM | GI50 (NCI-H322M lung) 28.8 µM | GI50 (SK-MEL-5 melanoma) 437 nM | GI50 (MCF7 breast) 14 µM | GI50 (HCT-116 colon) 2790 nM | GI50 (PC-3 prostate) 28.4 µM | GI50 (NCI-H522 lung) 4 µM | GI50 (A498 renal) 37.7 µM | GI50 (UO-31 renal) > 100 µM | GI50 (NCI-H226 lung) 32.7 µM | GI50 (COLO 205 colon) 68.9 µM | GI50 (SF-295 CNS) > 100 µM | GI50 ([…]-0 renal) 3.34 µM | GI50 (DU-145 prostate) 33.3 µM | GI50 (ACHN renal) 2330 nM | GI50 (IGROV1 ovarian) > 100 µM | GI50 (HOP-62 NSCLC) 1830 nM | GI50 (HCC-2998 colon) 2820 nM | GI50 (TK-10 renal) 32.2 µM | GI50 (SK-MEL-28 melanoma) 26.1 µM | GI50 (OVCAR-3 ovarian) > 100 µM | GI50 (OVCAR-8 ovarian) 10.8 µM | GI50 (SK-OV-3 ovarian) > 100 µM | GI50 (U251 glioblastoma) 11.2 µM | GI50 (SK-MEL-2 melanoma) > 100 µM | GI50 (UACC-257 melanoma) > 100 µM | GI50 (SNB-19 CNS) > 100 µM | GI50 (SN12C renal) 5.84 µM | GI50 (UACC-62 melanoma) 26.6 µM | GI50 (MDA-MB-231 breast) 38.3 µM | GI50 (MALME-3M melanoma) 20.6 µM | GI50 (SR leukemia) 6.81 µM | GI50 (OVCAR-5 ovarian) 77.6 µM | GI50 (HOP-92 NSCLC) 54.5 µM | GI50 (OVCAR-4 ovarian) > 100 µM
31.1 µM: TGI (786-0 renal)
37.4 µM: TGI (LOX IMVI melanoma)
6.21 µM: TGI (RXF 393 renal)
18.2 µM: TGI (HL-60(TB) leukemia)
83.2 µM: TGI (ACHN renal)
451 nM: TGI (RPMI-8226 leukemia)
active: GI50 (MOLT-4 leukemia) 56.6 nM | GI50 (MDA-MB-468 breast) 43.1 nM | GI50 (CCRF-CEM leukemia) 72.4 nM | GI50 (RPMI-8226 leukemia) 71.4 nM
53.3 µM: TGI (HOP-62 NSCLC)
373 nM: TGI (MOLT-4 leukemia)
10.7 µM: TGI (SK-MEL-5 melanoma)
71.3 µM: TGI (NCI-H522 lung)
368 nM: TGI (MDA-MB-468 breast)
47 µM: TGI (T-47D breast)
